Assay results as given in patent US6887864B2, “Azepane derivatives” (Hoffmann-La Roche Inc., priority 2002, dated 2005).

Legend:
[1] = mouse plasma stability test; format: in vitro ADME; settings: 10 μmol/1, 37° C.
Description: After defined periods of time with respect to the addition of said compounds to the mouse-plasma (t=0, 0.5, 1, 2, 4 h ), equal portions were isolated from the plasma, separated with HPLC and analyzed by mass spectrometry. During all these steps, the temperature was kept constant at 37° C. In the following table, the plasma stability of compounds according to the invention was compared to one of the selected compounds from EP 0 663 393 A1.

[2] = target: T1, AKT (Homo sapiens, UniProt P31749); experiment: ELISA-based AKT kinase assay; format: biochemical; design: made in house; host or cells: Sf9 insect cells; settings: AKT expressed in Sf9 cells, substrate peptide 300 nM, ATP 5 μM, 30 min at room temperature
T1 sequence (P31749 whole entry): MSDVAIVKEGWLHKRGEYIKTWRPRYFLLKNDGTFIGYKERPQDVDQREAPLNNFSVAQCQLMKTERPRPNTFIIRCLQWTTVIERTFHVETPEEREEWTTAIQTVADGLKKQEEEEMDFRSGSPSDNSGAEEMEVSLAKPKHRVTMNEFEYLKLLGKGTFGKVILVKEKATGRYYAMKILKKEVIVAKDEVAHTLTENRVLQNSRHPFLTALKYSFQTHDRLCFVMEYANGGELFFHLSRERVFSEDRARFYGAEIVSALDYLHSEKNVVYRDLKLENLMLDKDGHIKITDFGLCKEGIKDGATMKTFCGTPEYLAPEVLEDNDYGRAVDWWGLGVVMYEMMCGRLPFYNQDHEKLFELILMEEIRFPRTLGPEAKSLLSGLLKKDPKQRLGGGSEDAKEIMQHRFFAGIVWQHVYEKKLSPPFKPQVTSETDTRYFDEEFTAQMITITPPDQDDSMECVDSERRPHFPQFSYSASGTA
From the text: In order to study AKT inhibitory activity of the compounds according to the invention, an ELISA-based assay was developed for AKT. The assay design utilized a N-terminally biotinylated substrate peptide. When this substrate was phosphorylated by the AKT kinase, the product was recognized by a substrate/sequence-specific antibody known to bind to particular phosphorylated serine residues. For this assay, a Biotin-[…] peptide and anti-phospho-GSK-3α Ser21 antibody (rabbit) from Cell Signaling Technology/New England Biolabs were used.
The enzymatic reactions were carried out with AKT expressed in Sf9 cells (100 ng/reaction), substrate peptide (300 nM) and ATP (5 μM) in the absence or presence of different concentrations of compounds dissolved in DMSO. The final concentration of DMSO was 1%. The mixtures were reacted for 30 min at room temperature in assay buffer containing 50 mM Tris-HCl, 10 mM MgCl2, 1.0 mM DTT, 2 mM Na3VO4, pH 7.5, in a final volume of 40 μl. The reaction was stopped with addition of 10 μl 0,12 M EDTA/0,12 M EGTA. The reaction mixture was transferred to a SA-coated micro-titer-plate. After 1 h incubation, the plate was washed with PBS using a 384-well Embla plate washer. Anti-phospho-GSK-3α Ser21 antibody was added. After 1 h incubation the plate was washed with PBS and bound antibody was detected by addition of polyclonal<Rabbit>S-IgG-POD-conjugate from Roche Diagnostics GmbH. After 1 h incubation, the plate was washed with PBS. Amount of phosphorylated peptide was measured by an enzyme-catalyzed color reaction (ABTS conversion) and photometrical measurement at 405 nm.
Calculation of IC50 values were performed with ActivityBase.

[3] = target: T1, AKT; experiment: cellular AKT activity assay (GSK-3 Ser21/Ser9 phosphorylation in LNCaP cells, immunoblot); format: cell-based; design: endogenous in cells; host or cells: LNCaP prostate cancer cells; settings: 1 h treatment, inhibitors 6 μM to 187 nM, read-out: values found for effect on AKT activity in living cells (level of GSK-3-Ser21/Ser9 phosphorylation)
From the text: Additionally to Example 3 the acticity of compounds according to the invention was studied on a cellular AKT activity assay as follows:
Prostate cancer cell line LNCaP was passaged in RPMI 1640 with 10% fetal calf serum, 50 units/ml penicillin, and 50 units/ml streptomycin. LNCaP cells were characterized by a constitutive activation of AKT. Constitutive active AKT phosphorylates glycogen synthase kinase-3 (GSK-3) at Ser21/Ser9 in LNCaP cells. To measure the effect of compounds on the activity of AKT in living cells, LNCaP cells were treated with various concentrations of inhibitors (6 μM to 187 nM). After 1 h, the cells were harvested in lysis solution containing 50 mM HEPES (pH 7.0), 150 mM NaCl, 1.5 mM MgCl2 ,1 mM EGTA, 100 mM NaF, 10 mM sodium PPi, 10% glycerol, 1% Triton X-100, 1 mM Na3 […], […], 5 mM iodoacetic acid, and […]. The proteins from whole cell extracts were electrophoresed on 7.5% SDS/PAGE gels. Afterwards, proteins were transferred onto Nitrocellulose filter and immunoblotting using the enhanced chemiluminescence (ECL) detection system (Amersham Pharmacia) was performed. The level of GSK-3-Ser21/Ser9 phosphorylation was thereby determined using polyclonal anti-P-GSK-3-Ser-21/9 antibody (rabbit; New England Biolabs).

SMILES	melting point	Decrease [%] (after 4 h) [1]	IC50 [2]	IC50 [3]
CC(C)(C)c1ccc2cc(O)c(C(=O)c3ccc(C(=O)N[C@@H]4CCCNC[C@H]4NC(=O)c4ccncc4)cc3)c(F)c2n1.Cl	215 °C	–	–	–
Cl.O=C(N[C@@H]1CCCNC[C@H]1NC(=O)c1ccncc1)c1ccc(C(=O)c2cc(N3CCCCC3)ccc2O)cc1	218 to 224 °C	–	–	–
COc1ccc(O)c(C(=O)c2ccc(C(=O)N[C@@H]3CCCNC[C@H]3NC(=O)c3ccnc(N)c3)cc2)c1F.Cl	223 to 241 °C	–	–	–
COc1ccc(O)c(C(=O)c2ccc(C(=O)N[C@@H]3CCCNC[C@H]3NC(=O)c3ccncn3)cc2)c1F.Cl	256 to 265 °C	–	–	–
Cc1cccc(C(=O)c2ccc(C(=O)N[C@@H]3CCCNC[C@H]3NC(=O)c3ccncc3)cc2)c1.Cl	190 to 196 °C	–	–	–
CC(C)Oc1ccc(O)c(C(=O)c2ccc(C(=O)N[C@@H]3CCCNC[C@H]3NC(=O)c3ccncc3)cc2)c1.Cl	243 to 249 °C	–	–	–
Cl.O=C(N[C@@H]1CCCNC[C@H]1NC(=O)c1ccncc1)c1ccc(C(=O)c2cc(C3CCCCN3)ccc2O)cc1 (stereo partly drawn)	195 to 210 °C	–	–	–
CC1(C)CCCN(c2ccc(O)c(C(=O)c3ccc(C(=O)N[C@@H]4CCCNC[C@H]4NC(=O)c4ccncc4)cc3)c2)C1.Cl	194 to 198 °C	–	–	–
CC1(C)CCN(c2ccc(O)c(C(=O)c3ccc(C(=O)N[C@@H]4CCCNC[C@H]4NC(=O)c4ccncc4)cc3)c2)CC1.Cl	229 to 234 °C	–	–	–
CC(C)Nc1ccc(O)c(C(=O)c2ccc(C(=O)N[C@@H]3CCCNC[C@H]3NC(=O)c3ccncc3)cc2)c1.Cl	227 to 230 °C	–	–	–
COc1ccc(O)c(C(=O)c2ccc(C(=O)N[C@@H]3CCCNC[C@H]3NC(=O)c3ccc(O)cc3)cc2)c1F.Cl	190 to 196 °C	–	–	–
CN(C)c1ccc(O)c(C(=O)c2ccc(C(=O)N[C@@H]3CCCNC[C@H]3NC(=O)c3ccc(O)cc3)cc2)c1.Cl	203 to 206 °C	–	–	–
COc1ccc(O)c(C(=O)c2ccc(C(=O)N[C@@H]3CCCNC[C@H]3NC(=O)c3cc(C)c(O)c(C)c3)cc2)c1F.Cl	180 to 183 °C	–	–	–
Cc1cc(C(=O)N[C@@H]2CNCCC[C@H]2NC(=O)c2ccc(C(=O)c3cc(N(C)C)ccc3O)cc2)cc(C)c1O.Cl	217 to 219 °C	–	–	–

More lines, now with the values ahead:

melting point	Decrease [%] (after 4 h) [1]	IC50 [2]	IC50 [3]	SMILES
255 to 260 °C	–	–	–	Cc1ccc2cc(O)c(C(=O)c3ccc(C(=O)N[C@@H]4CCCNC[C@H]4NC(=O)c4ccncc4)cc3)c(F)c2n1.Cl
215 to 220 °C	–	–	–	Cl.O=C(N[C@@H]1CCCNC[C@H]1NC(=O)c1ccncc1)c1ccc(C(=O)c2c(O)ccc3ncccc23)cc1
230 to 245 °C	–	–	–	CN(C)c1ccc(O)c(C(=O)c2ccc(C(=O)N[C@@H]3CCCNC[C@H]3NC(=O)c3ccncc3)cc2)c1.Cl
265 °C	–	–	–	CC1(C)CCCNC1c1ccc(O)c(C(=O)c2ccc(C(=O)N[C@@H]3CCCNC[C@H]3NC(=O)c3ccncc3)cc2)c1F.Cl (stereo partly drawn)
230 to 240 °C	–	–	–	Cl.O=C(N[C@@H]1CCCNC[C@H]1NC(=O)c1ccncc1)c1ccc(C(=O)c2c(O)ccc3c2OCCO3)cc1
108 to 114 °C	–	–	–	Cl.O=C(N[C@@H]1CCCNC[C@H]1NC(=O)c1ccncc1)c1ccc(C(=O)c2cc(O)ccc2O)cc1
215 to 218 °C	–	–	–	Cl.NCc1ccc(O)c(C(=O)c2ccc(C(=O)N[C@@H]3CCCNC[C@H]3NC(=O)c3ccncc3)cc2)c1
203 to 208 °C	–	–	–	Cc1cc(C(=O)c2ccc(C(=O)N[C@@H]3CCCNC[C@H]3NC(=O)c3ccncc3)cc2)c(O)cn1.Cl
247 to 251 °C	–	–	–	Cl.O=C(N[C@@H]1CCCNC[C@H]1NC(=O)c1ccncc1)c1ccc(C(=O)c2c(O)cc3cccnc3c2F)cc1
200 to 222 °C	6.2%	–	–	COc1ccc(O)c(C(=O)c2ccc(C(=O)N[C@@H]3CCCNC[C@H]3NC(=O)c3ccncc3)cc2)c1F.Cl [Example 1a, N-{(3R, 4R)-4-[4-(2-Fluoro-6-hydroxy-3-methoxy-benzoyl)-benzoylamino]-azepan-3-yl}-isonicotinamide hydrochloride]
181 to 184 °C	21.9%	7 nM	3000 nM	Cc1ccc(O)c(C(=O)c2ccc(C(=O)N[C@@H]3CCCNC[C@H]3NC(=O)c3ccncc3)cc2)c1F.Cl [Example 2-1, N-{(3R,4R)-4-[4-(2-Fluoro-6-hydroxy-3-methyl-benzoyl)-benzoylamino]-azepan-3-yl}-isonicotinamide hydrochloride]
183 to 185 °C	26.9%	11 nM	1500 nM	CSc1ccc(O)c(C(=O)c2ccc(C(=O)N[C@@H]3CCCNC[C@H]3NC(=O)c3ccncc3)cc2)c1.Cl [Example 2-2, N-{(3R,4R)-4-[4-(6-Hydroxy-3-methylsulfanyl-benzoyl)-benzoylamino]-azepan-3-yl}-isonicotinamide hydrochloride]
185 to 193 °C	–	116 nM	> 24000 nM	COc1ccc(O)c(C(=O)c2ccc(C(=O)N[C@@H]3CCCNC[C@H]3NC(=O)c3ccncc3)cc2)c1OC.Cl [Example 2-4, N-{(3R,4R)-4-[4-(6-Hydroxy-2,3-dimethoxy-benzoyl)-benzoylamino]-azepan-3-yl}-isonicotinamide hydrochloride]
230 to 240 °C	–	15 nM	2000 nM	COc1ccc(O)c(C(=O)c2ccc(C(=O)N[C@@H]3CCCNC[C@H]3NC(=O)c3ccncc3)cc2)c1.Cl [Example 2-5, N-{(3R,4R)-4-[4-(2-Hydroxy-5-methoxy-benzoyl)-benzoylamino]-azepan-3-yl}-isonicotinamide hydrochloride]
215 to 219 °C	–	16 nM	1000 nM	Cc1ccc(O)c(C(=O)c2ccc(C(=O)N[C@@H]3CCCNC[C@H]3NC(=O)c3ccncc3)cc2)c1.Cl [Example 2-6, N-{(3R,4R)-4-[4-(2-Hydroxy-5-methyl-benzoyl)-benzoylamino]-azepan-3-yl}-isonicotinamide hydrochloride]
